Measurements published in ChEMBL document CHEMBL1201862, “PubChem BioAssay data set” (2004).
Where “and” joins values, the source holds several entries; their conditions need not be identical. Equal entries are not always repeated. Calls of active or inactive are those of the source.

Columns and labels:
Mucolipin-3 [1] = molecular target: T1, Mucolipin-3 (Homo sapiens, UniProt Q8TDD5); experiment: activators of mucolipin-3 and mucolipin-2 – cell-based, patch clamp, Fura-2 profiling panel, panel member TRPML3 Dose Response (AID 2116)
T1 sequence (Q8TDD5 whole entry): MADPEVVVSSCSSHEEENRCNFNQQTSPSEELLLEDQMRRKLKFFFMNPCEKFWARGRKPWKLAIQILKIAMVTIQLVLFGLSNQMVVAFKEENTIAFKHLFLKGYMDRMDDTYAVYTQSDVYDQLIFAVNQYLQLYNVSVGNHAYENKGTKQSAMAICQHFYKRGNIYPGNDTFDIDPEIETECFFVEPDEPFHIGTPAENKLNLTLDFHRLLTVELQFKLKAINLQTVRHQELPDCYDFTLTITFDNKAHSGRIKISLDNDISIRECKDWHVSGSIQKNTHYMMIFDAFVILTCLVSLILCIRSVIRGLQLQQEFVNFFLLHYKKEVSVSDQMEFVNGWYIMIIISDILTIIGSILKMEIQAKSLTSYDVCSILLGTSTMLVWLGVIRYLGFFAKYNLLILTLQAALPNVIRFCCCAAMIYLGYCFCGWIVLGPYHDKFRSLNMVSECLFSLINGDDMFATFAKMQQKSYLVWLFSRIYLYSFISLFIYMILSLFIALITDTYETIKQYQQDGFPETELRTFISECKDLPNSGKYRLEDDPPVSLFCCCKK

Ion channel NompC [2] = molecular target: T2, Ion channel NompC (Danio rerio, UniProt Q7T1G6); experiment: activators of mucolipin-3 and mucolipin-2 – cell-based, […], Fura-2 profiling panel, panel member TRPN1 Dose Response (AID 2116)
T2 sequence (Q7T1G6 whole entry): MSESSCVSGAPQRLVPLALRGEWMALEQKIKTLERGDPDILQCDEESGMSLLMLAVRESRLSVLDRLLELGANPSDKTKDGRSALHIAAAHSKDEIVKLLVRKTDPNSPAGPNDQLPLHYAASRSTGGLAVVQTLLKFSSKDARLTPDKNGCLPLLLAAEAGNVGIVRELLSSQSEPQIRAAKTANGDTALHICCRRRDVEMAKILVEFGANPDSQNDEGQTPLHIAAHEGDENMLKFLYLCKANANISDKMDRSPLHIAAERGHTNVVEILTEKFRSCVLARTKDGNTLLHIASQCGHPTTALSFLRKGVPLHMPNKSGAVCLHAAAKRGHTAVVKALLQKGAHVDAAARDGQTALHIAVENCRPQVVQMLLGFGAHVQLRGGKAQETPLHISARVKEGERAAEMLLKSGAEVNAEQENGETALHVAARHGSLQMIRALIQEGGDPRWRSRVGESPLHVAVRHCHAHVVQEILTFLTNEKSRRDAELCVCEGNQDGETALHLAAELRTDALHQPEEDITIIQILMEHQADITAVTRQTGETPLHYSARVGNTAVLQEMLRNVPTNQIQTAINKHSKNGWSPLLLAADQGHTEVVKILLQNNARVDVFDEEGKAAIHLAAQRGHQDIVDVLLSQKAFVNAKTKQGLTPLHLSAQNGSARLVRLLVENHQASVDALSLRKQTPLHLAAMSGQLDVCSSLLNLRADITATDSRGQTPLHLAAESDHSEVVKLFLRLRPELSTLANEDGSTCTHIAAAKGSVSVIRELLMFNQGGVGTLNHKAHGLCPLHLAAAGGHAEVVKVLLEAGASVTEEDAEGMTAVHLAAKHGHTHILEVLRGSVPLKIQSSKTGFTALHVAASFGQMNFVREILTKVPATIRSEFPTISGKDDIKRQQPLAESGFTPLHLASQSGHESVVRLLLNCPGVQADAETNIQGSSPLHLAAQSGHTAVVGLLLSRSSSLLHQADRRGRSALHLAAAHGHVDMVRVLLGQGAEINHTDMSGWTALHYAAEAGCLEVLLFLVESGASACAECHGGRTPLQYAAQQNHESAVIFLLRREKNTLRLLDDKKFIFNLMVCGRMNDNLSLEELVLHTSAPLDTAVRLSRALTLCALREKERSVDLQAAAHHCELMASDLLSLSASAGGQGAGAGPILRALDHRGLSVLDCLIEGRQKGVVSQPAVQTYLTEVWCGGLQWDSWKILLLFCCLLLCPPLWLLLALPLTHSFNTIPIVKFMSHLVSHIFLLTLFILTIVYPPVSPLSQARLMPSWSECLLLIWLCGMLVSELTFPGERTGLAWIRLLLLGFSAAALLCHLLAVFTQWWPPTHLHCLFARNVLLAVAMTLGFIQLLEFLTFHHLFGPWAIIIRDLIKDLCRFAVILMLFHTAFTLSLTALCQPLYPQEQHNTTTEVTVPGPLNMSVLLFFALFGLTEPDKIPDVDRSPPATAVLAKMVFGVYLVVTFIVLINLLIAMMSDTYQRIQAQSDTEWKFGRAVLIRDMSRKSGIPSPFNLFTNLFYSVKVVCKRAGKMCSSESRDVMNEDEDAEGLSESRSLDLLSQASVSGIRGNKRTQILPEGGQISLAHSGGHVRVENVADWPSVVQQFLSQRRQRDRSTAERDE

Mucolipin-3 [3] = molecular target: T1, Mucolipin-3; experiment: Dose response cell-based high-throughput screening assay for agonists of the transient receptor potential channel ML3 (TRPML3). [Related pubchem assays: 1526, 1424, 1448 ]; format: functional
Ion channel NompC [4] = molecular target: T2, Ion channel NompC; experiment: Fluorescence counterscreen assay for TRPML3 agonists: dose response cell-based high-throughput screening assay to identify agonists of the transient receptor potential channel N1 (TRPN1). [Related pubchem assays: 1526, 1424, 1448 ]; format: functional
[5] = antiviral protection against BTV-induced cell death – arbovirus, BSR cells, confirmation (AID 1250); format: functional;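 note: protection from viral cytopathic effect measured as cell viability by ATP luminescence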
Bcl-2-like protein 10 = molecular target: T3, Bcl-2-like protein 10 (Homo sapiens, UniProt Q9HD36); experiment: Concentration-response of Bcl-B inhibitors by biochemical FP with TR3 (AID 1243); format: functional
T3 sequence (Q9HD36 whole entry): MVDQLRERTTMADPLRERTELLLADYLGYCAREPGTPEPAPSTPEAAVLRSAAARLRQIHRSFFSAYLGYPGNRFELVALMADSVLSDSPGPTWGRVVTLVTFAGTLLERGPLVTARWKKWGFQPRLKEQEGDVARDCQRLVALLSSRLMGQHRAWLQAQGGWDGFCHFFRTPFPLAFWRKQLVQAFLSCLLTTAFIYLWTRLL

[6] = molecular target: Voltage-dependent T-type calcium channel subunit alpha-1H (Homo sapiens, UniProt O95180); format: functional;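 note: channel activity triggered by adding a high calcium stimulation buffer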
[7] = molecular target: Luciferin 4-monooxygenase (Photinus pyralis, UniProt P08659); experiment: Counter Screen for Luciferase-based Assay Positives. [Related pubchem assays: 620, 618, 411 ]
HT-1080 = experiment: HT1080 cell viability loss – fluorescence readout (AID 620); format: functional, cell-based; conditions: Homo sapiens
[8] = molecular target: T4, Eukaryotic translation initiation factor 2-alpha kinase 3 (Homo sapiens, UniProt Q9NZJ5); experiment: Dose response cell-based high-throughput screening assay to measure PERK inhibition. [Related pubchem assays: 1416 ]; format: functional
T4 sequence (Q9NZJ5 whole entry): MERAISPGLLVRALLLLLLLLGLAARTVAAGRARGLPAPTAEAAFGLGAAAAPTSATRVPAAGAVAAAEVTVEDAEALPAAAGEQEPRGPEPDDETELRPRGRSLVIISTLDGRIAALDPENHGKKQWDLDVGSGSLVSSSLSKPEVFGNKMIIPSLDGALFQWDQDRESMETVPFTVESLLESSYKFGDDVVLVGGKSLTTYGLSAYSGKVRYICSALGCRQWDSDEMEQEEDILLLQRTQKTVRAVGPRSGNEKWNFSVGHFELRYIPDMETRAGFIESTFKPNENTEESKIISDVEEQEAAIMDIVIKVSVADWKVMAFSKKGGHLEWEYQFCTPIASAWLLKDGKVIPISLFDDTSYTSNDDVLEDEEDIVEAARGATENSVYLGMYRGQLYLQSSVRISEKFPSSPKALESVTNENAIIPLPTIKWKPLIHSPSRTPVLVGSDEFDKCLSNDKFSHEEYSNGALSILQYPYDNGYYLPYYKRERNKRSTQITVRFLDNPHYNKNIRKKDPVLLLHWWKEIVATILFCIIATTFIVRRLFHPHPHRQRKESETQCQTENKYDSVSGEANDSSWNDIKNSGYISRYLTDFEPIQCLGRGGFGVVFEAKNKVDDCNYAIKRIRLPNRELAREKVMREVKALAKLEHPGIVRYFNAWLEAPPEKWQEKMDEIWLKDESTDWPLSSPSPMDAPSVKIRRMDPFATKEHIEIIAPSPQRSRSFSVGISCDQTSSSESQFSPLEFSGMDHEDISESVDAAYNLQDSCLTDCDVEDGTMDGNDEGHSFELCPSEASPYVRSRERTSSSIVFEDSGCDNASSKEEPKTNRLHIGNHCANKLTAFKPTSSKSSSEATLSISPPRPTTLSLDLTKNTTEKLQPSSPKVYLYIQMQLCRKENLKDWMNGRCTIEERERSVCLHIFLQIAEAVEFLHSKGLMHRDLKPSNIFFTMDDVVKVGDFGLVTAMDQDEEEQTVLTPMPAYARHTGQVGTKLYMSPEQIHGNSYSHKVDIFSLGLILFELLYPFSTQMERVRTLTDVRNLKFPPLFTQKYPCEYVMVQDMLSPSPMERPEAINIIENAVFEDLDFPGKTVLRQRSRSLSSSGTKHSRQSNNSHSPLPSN

[9] = molecular target: T4, Eukaryotic translation initiation factor 2-alpha kinase 3; experiment: Counterscreen assay for PERK inhibitors: Dose response cell-based high throughput screening assay to measure inhibition of PERK at 6 hours. [Related pubchem assays: 1522, 1416 ]; format: functional
[10] = molecular target: Acyl-homoserine lactone acylase PvdQ (Pseudomonas aeruginosa (strain LESB58), UniProt Q9I194); experiment: PvdQ acylase enzyme activity blockers – biochemical, fluorescence, plate reader and imaging, cherry-picks, dose response (AID 493231)
Sequence of Acyl-homoserine lactone acylase PvdQ (Q9I194 24-193 limits assumed): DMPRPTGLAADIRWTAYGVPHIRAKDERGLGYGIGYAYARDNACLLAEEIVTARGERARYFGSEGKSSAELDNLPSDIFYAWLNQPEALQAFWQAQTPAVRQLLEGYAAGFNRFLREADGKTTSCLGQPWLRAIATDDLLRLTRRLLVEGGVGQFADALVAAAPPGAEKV
Sequence of Acyl-homoserine lactone acylase PvdQ (Q9I194 217-762 limits assumed): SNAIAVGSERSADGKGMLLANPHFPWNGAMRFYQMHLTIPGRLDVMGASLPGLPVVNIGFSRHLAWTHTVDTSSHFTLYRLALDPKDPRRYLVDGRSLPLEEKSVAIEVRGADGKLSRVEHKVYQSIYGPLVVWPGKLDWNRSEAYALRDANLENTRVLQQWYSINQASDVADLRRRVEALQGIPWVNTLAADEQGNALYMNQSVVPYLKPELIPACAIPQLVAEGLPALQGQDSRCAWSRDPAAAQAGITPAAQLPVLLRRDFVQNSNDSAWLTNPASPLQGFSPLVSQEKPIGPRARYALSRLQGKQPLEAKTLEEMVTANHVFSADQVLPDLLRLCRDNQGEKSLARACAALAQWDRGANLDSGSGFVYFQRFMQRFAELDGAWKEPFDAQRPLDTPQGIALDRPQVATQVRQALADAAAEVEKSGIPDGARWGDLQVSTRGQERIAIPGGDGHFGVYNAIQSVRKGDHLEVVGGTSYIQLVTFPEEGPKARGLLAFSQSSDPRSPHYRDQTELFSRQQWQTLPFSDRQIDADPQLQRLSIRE

[11] = molecular target: C-C chemokine receptor type 6 (Homo sapiens, UniProt P51684); experiment: antagonism of CCR6 beta-arrestin recruitment – cell-based, luminescent beta-arrestin readout, dose response (AID 504728); format: functional
Sequence of C-C chemokine receptor type 6 (P51684 whole entry, the tested form may be a part): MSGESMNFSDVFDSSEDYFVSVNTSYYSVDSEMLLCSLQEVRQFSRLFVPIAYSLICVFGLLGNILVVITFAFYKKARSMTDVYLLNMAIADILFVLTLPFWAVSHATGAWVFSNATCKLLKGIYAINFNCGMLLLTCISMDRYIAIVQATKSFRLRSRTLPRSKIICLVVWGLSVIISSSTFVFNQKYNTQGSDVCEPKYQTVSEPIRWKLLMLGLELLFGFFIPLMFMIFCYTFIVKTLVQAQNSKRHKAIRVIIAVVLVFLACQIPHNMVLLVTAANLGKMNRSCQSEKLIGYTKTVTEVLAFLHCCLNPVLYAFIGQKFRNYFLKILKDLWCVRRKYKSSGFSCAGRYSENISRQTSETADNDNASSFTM

[12] = viability loss in CEM21 cells – cell-based, CellTiter-Glo luminescence, cherry-picked, cytotoxicity control for viral fusion inhibitor project, dose response (AID 652042); format: functional;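 note: potency for signal decrease meaning cytotoxicity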
[13] = HIV-1 AD8 envelope cell-cell fusion blockers – cherry-pick, dose response (AID 652062); format: functional, cell-based;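 note: luciferase signal from cell-cell fusion driven by HIV-1 clade B AD8 Env; potency is for inhibitors of fusion seen as a drop in luminescence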
cells = format: functional, cell-based; conditions: HEK-CNG
[14] = blockers of HIV-1 ZM109 envelope-driven cell-cell fusion – HeLa effector, CEM target cells, luciferase, cherry-pick, dose response (AID 652058); format: functional, cell-based;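 note: luciferase signal from HIV-1 Env mediated cell-cell fusion of effector and target cells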
Galanin receptor type 3 = molecular target: T5, Galanin receptor type 3 (Homo sapiens, UniProt O60755); experiment: Fluorescence-based cell-based primary high throughput dose response assay to identify antagonists of the Galanin Receptor 3 (GalR3).; format: functional
T5 sequence (O60755 whole entry): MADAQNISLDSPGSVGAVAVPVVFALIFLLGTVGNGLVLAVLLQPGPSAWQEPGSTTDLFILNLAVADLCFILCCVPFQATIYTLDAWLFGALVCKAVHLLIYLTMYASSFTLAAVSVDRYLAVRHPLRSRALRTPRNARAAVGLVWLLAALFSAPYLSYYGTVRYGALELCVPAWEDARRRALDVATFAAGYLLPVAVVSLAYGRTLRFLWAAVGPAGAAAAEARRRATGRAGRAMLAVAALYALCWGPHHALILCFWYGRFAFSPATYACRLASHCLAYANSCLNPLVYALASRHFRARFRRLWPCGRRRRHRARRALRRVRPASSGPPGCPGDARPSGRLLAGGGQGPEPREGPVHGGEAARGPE

Beta-galactosidase = Beta-galactosidase (Escherichia coli, UniProt Q8VNN2); experiment: detection-enzyme interference by beta-gal modulators – biochemical, E. coli enzyme, set 3, artefact control for CCR6 antagonist project, dose response (AID 504712); format: functional
Sequence of Beta-galactosidase (Q8VNN2 whole entry): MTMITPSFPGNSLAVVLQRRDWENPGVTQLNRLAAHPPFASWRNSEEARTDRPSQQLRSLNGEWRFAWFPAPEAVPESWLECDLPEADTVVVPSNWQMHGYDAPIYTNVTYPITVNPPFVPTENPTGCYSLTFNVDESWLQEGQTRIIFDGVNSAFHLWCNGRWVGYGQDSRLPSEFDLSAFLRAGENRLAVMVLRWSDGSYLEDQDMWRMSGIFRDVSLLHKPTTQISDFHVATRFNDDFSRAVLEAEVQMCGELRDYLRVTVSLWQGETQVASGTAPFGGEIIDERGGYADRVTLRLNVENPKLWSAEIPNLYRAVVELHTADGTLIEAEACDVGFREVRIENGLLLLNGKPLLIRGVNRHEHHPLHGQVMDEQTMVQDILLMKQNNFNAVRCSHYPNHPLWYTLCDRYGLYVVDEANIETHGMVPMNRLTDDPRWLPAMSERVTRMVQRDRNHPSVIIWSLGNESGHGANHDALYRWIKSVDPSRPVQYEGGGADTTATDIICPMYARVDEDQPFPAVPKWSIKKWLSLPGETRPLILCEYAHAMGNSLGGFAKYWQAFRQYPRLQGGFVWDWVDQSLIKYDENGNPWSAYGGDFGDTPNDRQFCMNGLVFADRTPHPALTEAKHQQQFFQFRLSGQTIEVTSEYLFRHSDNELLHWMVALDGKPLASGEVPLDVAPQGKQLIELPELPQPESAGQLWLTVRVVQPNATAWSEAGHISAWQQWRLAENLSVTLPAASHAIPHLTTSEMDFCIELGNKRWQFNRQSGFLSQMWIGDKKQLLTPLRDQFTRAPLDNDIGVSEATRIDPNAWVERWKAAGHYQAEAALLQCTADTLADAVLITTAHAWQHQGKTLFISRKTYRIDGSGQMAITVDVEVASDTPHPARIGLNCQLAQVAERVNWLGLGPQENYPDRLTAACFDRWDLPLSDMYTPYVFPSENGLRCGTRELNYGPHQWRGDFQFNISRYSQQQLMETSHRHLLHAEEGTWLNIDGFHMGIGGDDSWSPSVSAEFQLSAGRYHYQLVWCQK

With `Cc1ccc(Cl)cc1N1CCN(S(=O)(=O)N2CCCCC2)CC1` the EC50 (Mucolipin-3 [1]) was 3.46 µM (active), the EC50 (Ion channel NompC [2]) was > 29.9 µM (inactive) and the EC50 (Mucolipin-3 [3]) was 1.84 µM (active). For the same molecule, the EC50 (Ion channel NompC [4]) was > 29.9 µM (not active).
For `N#Cc1c(O)nc(SCC(=O)Nc2nnc(C(F)(F)F)s2)nc1-c1ccccc1`, the IC50 [5] was 28.1 µM (active).
With `OC1=c2ccccc2=C(O)C12N=Nc1nnc(S)n1N2` the EC50 (Bcl-2-like protein 10) was 23.8 µM (active).
In the case of `CCN(CC)S(=O)(=O)c1cccc(C(=O)N[C@H](C(=O)OCC(=O)Nc2ccccc2)C(C)C)c1`, the EC50 [6] is reported as 0.558 µM (active).
For `CCOC(=O)CNC(=O)CSc1ncnc2c1cnn2-c1ccc(C)cc1`, the EC50 [7] was < 0.2 µM (active) and the EC50 (HT-1080) was > 50 µM (not active).
For `CC(C)C(=O)Nc1ccc2c(c1)nc(CCN1CCN(C)CC1)n2C`, the EC50 [8] was > 55.7 µM (not active) and the EC50 [9] was > 55.7 µM (not active).
With `CC(C)CCNC(=O)c1cccc(Cl)c1` the AC50 [10] was 6.33 µM (active).
For `COCC(C)n1c(-c2ccc3c(c2)NC(=O)CO3)cs/c1=N\c1ccc(OC(F)F)cc1` (centres undefined), the IC50 [11] was > 66.6 µM (inactive), the AC50 [12] was 42.7 µM (active) and the AC50 [13] was 3.15 µM (active). For the same molecule, the EC50 (cells) was > 29.9 µM (inactive), the AC50 [14] was 4.28 µM (active) and the IC50 (Galanin receptor type 3) was 4.24 µM (active) and 3.49 µM (active). The IC50 (Beta-galactosidase) was > 66.6 µM (inactive).
